Measured values as given in patent US9174998B2, “(6S,9aS)-N-benzyl-6-[(4-hydroxyphenyl)methyl]-4,7-dioxo-8-({6-[3-(piperazin-1-yl)azetidin-1-yl]pyridin-2-yl}methyl)-2-(prop-2-en-1-yl)-octahydro-1H-pyrazino[2,1-c][1,2,4]triazine-1-carboxamide compound” (Eisai R&D Management Co., Ltd., priority 2013, dated 2015).
In brackets after ≈: the same amount, converted by molar mass. Like-named read-outs stand apart in the source and are kept apart here.

Key:
[1] = system: Wnt signal; assay: Detection of Wnt signal (TOPglow luciferase reporter, LiCl-stimulated); format: cell-based; settings: Homo sapiens; HEK293 clone carrying pNeo-TOP reporter; LiCl stimulation; luciferase luminescence; read-out: Test Example 1 IC50 (concentration required for inhibiting the Wnt signal activity by 50%)
Description: pcDNA3.1(+) (invitrogen) was cleaved with restriction enzymes BglII and NotI, and an adapter BEHKS having a sequence shown below (containing restriction enzyme sites BglII, EcoRI, HindIII, KpnI, SacI and NotI) was inserted thereinto, thereby producing a plasmid pNeo-HKS.
Subsequently, a fragment having a length of about 2700 bp (containing a Wnt-responsive sequence and a luciferase gene), which was prepared by cleaving from a TOPglow plasmid contained in a TOPglow/FOPglow TCF Reporter Kit (upstate Catalog#17-366) with restriction enzymes HindIII and KpnI, was inserted between HindIII and KpnI in pNeo-HKS, thereby producing a plasmid pNeo-TOP. The plasmid pNeo-TOP was introduced into human fetus-derived renal cell strain HEK293, then a compound was selected using G418, and then a cell clone strain was established by a limiting dilution method. The cell clone strain was subjected to a Wnt signal detection test.
The cell clone strain was subcultured in a D-MEM glucose-rich culture medium (Wako Pure Chemical Industries, Ltd.) containing 10% FBS, and cells in a growth phase were used in the test. Cells were collected using trypsin-EDTA, the number of the cells was counted, and then the cells were suspended in a D-MEM glucose-rich culture medium containing 10% FBS so that the number of cells became 2×10^5 cells/mL. The cell suspension was added to a 96-well cell culture plate (Greiner Bio-One Co., Ltd., product number: 655083) in an amount of 0.1 mL/well and then cultured overnight in a 5% CO2 incubator (37° C.). After the culturing, a substance to be tested, which was dissolved in DMSO, was diluted with a D-MEM glucose-rich culture medium containing 10% of FBS and 80 mM of LiCl to produce a sample solution. The sample solution (0.1 mL) was added to each well and then cultured in a 5% CO2 incubator (37° C.) […]. Six hours after the addition of the sample solution, a supernatant was removed from each well, and then 50 μL of Bright-Glo™ Luciferase substrate (Promega, product number: E2620) was added thereto. The plate was put on a plate mixer for several seconds, and then the emission of light from each well was measured using a EnVision™ Multilabel plate reader (PerkinElmer Co., Ltd.). The Wnt signal activation rate (%) of each well was determined, and a concentration (IC50) which is required for inhibiting the Wnt signal activity of a substance of interest by 50% was calculated, wherein the luminosity of a well to which a sample solution was not added and LiCl was added was defined as a 100% Wnt signal activity and the luminosity of a well to which either of a sample solution or LiCl was not added was defined as a 0% Wnt signal activity.

[2] = Evaluation of metabolic stability; format: in vitro ADME, human; settings: 0.2 mg/mL HLM, 0.1 μM test substance, 15 minutes at 37° C., with vs without NADPH production
Description: A test substance was dissolved in DMSO so that the concentration of the resultant solution became 20 mM, and the solution was diluted with DMSO so that the concentration of the resultant solution became 1 mM. The metabolic stability of the test substance was evaluated using a human liver microsome (HLM) in which human liver was pooled. An assay buffer solution contained 0.2 mg/mL of HLM, a 0.1 M of phosphate potassium buffer solution (pH 7.4), 0.1 mM of EDTA, 0.33 mM of NADP+, 8 mM of glucose-6-phosphate, 0.1 U/mL of glucose-6-phosphate dehydrogenase, 6 mM of MgCl2, 0.1 μM of a test substance (final concentration in DMSO: 0.01%) in 0.15 mL of the final incubation volume. Fifteen minutes after the initiation of the reaction at 37° C., 0.15 mL of a acetonitrile/methanol mixed solution (7:3, by volume) was added to the solution to terminate the reaction. After centrifugation, the resultant supernatant was analyzed by LC-MSMS, peak areas were compared under the presence or absence of the production of NADPH, and the residual ratio of the test substance was calculated.

[3] = Evaluation of solubility (DMSO stock into PBS, HPLC-UV); format: physicochemical; settings: Dulbecco's phosphate-buffered saline pH 7, room temperature, about 15 minutes shaking, values greater than 200 μM regarded as 200 μM, read-out: Test Example 3 solubility
Description: To 0.25 mL of a test solution a mentioned below was added 2.5 μL of a DMSO solution having a compound concentration of 20 mM. The resultant solution was shaken at room temperature for about 15 minutes (the conditions for the shaking are mentioned below). Subsequently, a supernatant was collected by a suction filtration under a reduced pressure. A DMSO solution having a compound concentration of 200 μM was used as a standard solution, and the concentration of a compound in a filtrate which was quantified by a HPLC-UV method was employed as a solubility (rounded off to the whole number). In this evaluation, since a value 200 μM became the upper limit operationally, all of quantification values greater than 200 μM were regarded as 200 μM.
Test solution: GIBCO (registered trade name) Dulbecco's phosphate-buffered saline (pH 7, Life Technologies Corporation)
Conditions for shaking: a microplate shaker N-704 (Nissinrika Corporation), speed 6

[4] = PAMPA test (parallel artificial membrane permeability assay); format: in vitro ADME; settings: phosphate buffer pH 6.8, about 200 μM, about 5 hours, room temperature, read-out: Test Example 4 membrane permeation coefficient Pe
Description: A test solution (see below) was stirred while shaking at room temperature for about 5 hours using a 96-well PAMPA plate (BD Biosciences) in which a lipid had been precoated onto a polyvinylidene fluoride (PVDF) film to evaluate the membrane permeation coefficient Pe (cm/s) of each compound dissolved in the test solution (concentration: about 200 μM) upon the transport of the compound from a donor side to an acceptor side through a lipid membrane. The Pe value was calculated in accordance with equations 1 and 2, and the concentration of the compound on the donor side and the acceptor side was measured by a HPLC-UV method. In 0.3 mL of the test solution on the donor side is contained about 1% (v/v) of DMSO, since 3 μL of a DMSO solution containing the compound at a concentration of 20 mM was added to the test solution.
Test solution: a phosphate buffer solution having a pH value of 6.8 (90 mM of phosphate, 48 mM of NaCl, 5.4 mM of KCl)
Conditions for stirring: a multishaker MS-300 (AS ONE Corporation), 350 rpm
[formula] CD(t): compound concentration in donor well at time t CA(t): compound concentration in acceptor well at time t VD: donor well volume (0.3 mL) VA: acceptor well volume (0.2 mL) A: filter area (0.3 cm^2)

[5] = aqueous buffer, kinetic from dmso stock

Row | Compound | IC50 [1] [µM] | Test Example 2 residual ratio of the test substance [2] [%] | solubility [3, 5] [µM] | Papp [4] [nm/s] | solubility [3] [µM]
1 | C=CCN1CC(=O)N2[C@@H](Cc3c(F)cc(O)cc3F)C(=O)N(Cc3cccc(N4CC(N5CCN(C)C[C@@H]5C)C4)n3)C[C@@H]2N1C(=O)NCc1ccccc1 [Example 17, (6S,9aS)-N-Benzyl-6-((2,6-difluoro-4-hydroxyphenyl)methyl)-8-((6-(3-((2S)-2,4-dimethylpiperazin-1-yl)azetidin-1-yl)pyridin-2-yl)methyl)-4,7-dioxo-2-(prop-2-en-1-yl)-octahydro-1H-pyrazino[2,1-c][1,2,4]triazine-1-carboxamide] | 0.21 | 60 | 195 (≈ 145 µg/mL) | 8.9 | –
2 | C=CCN1CC(=O)N2[C@@H](Cc3ccc(O)cc3)C(=O)N(Cc3cccc(N4CC(N5CCN(CC)[C@@H](C)C5)C4)n3)C[C@@H]2N1C(=O)NCc1ccccc1 [Example 18, (6S,9aS)-N-Benzyl-8-((6-(3-((3S)-4-ethyl-3-methylpiperazin-1-yl)azetidin-1-yl)pyridin-2-yl)methyl)-6-((4-hydroxyphenyl)methyl)-4,7-dioxo-2-(prop-2-en-1-yl)-octahydro-1H-pyrazino[2,1-c][1,2,4]triazine-1-carboxamide] | 0.32 | 37 | – | 11.3 | 200 (≈ 144 µg/mL)
3 | C=CCN1CC(=O)N2C(CN(Cc3cccc(N4CC(N5CCN(CC)[C@H](C)C5)C4)n3)C(=O)[C@@H]2Cc2ccc(O)cc2)N1C(=O)NCc1ccccc1 (stereo partly drawn) [Example 19, (6S,9aS)-N-Benzyl-8-((6-3-((3R)-4-ethyl-3-methylpiperazin-1-yl)azetidin-1-yl)pyridin-2-yl)methyl-6-((4-hydroxyphenyl)methyl)-4,7-dioxo-2-(prop-2-en-1-yl)-octahydro-1H-pyrazino[2,1-c][1,2,4]triazine-1-carboxamide] | 0.23 | 30 | – | 9.1 | 200 (≈ 144 µg/mL)
4 | C=CCN1CC(=O)N2[C@@H](Cc3ccc(O)cc3F)C(=O)N(Cc3cccc(N4CC(N5CCN(CC)[C@@H](C)C5)C4)n3)C[C@@H]2N1C(=O)NCc1ccccc1 [Example 20, (6S,9aS)-N-Benzyl-8-((6-(3-((3S)-4-ethyl-3-methylpiperazin-1-yl)azetidin-1-yl)pyridin-2-yl)methyl)-6-((2-fluoro-4-hydroxyphenyl)methyl)-4,7-dioxo-2-(prop-2-en-1-yl)-octahydro-1H-pyrazino[2,1-c][1,2,4]triazine-1-carboxamide] | 0.061 | 23 | 197 (≈ 146 µg/mL) | 21.7 | –
5 | C=CCN1CC(=O)N2[C@@H](Cc3ccc(O)cc3F)C(=O)N(Cc3cccc(N4CC(N5CCN(CC)[C@H](C)C5)C4)n3)C[C@@H]2N1C(=O)NCc1ccccc1 [Example 21, (6S,9aS)-N-Benzyl-8-((6-(3-((3R)-4-ethyl-3-methylpiperazin-1-yl)azetidin-1-yl)pyridin-2-yl)methyl)-6-((2-fluoro-4-hydroxyphenyl)methyl)-4,7-dioxo-2-(prop-2-en-1-yl)-octahydro-1H-pyrazino[2,1-c][1,2,4]triazine-1-carboxamide] | 0.063 | 23 | – | 14.7 | 200 (≈ 148 µg/mL)
6 | C=CCN1CC(=O)N2[C@@H](Cc3c(F)cc(O)cc3F)C(=O)N(Cc3cccc(N4CC(N5CCN(CC)[C@@H](C)C5)C4)n3)C[C@@H]2N1C(=O)NCc1ccccc1 [Example 22, (6S,9aS)-N-Benzyl-6-((2,6-difluoro-4-hydroxyphenyl)methyl)-8-((6-(3-((3S)-4-ethyl-3-methylpiperazin-1-yl)azetidin-1-yl)pyridin-2-yl)methyl)-4,7-dioxo-2-(prop-2-en-1-yl)-octahydro-1H-pyrazino[2,1-c][1,2,4]triazine-1-carboxamide] | 0.18 | 43 | – | 5.7 | 200 (≈ 152 µg/mL)
7 | C=CCN1CC(=O)N2[C@@H](Cc3c(F)cc(O)cc3F)C(=O)N(Cc3cccc(N4CC(N5CCN(CC)[C@H](C)C5)C4)n3)C[C@@H]2N1C(=O)NCc1ccccc1 [Example 23, (6S,9aS)-N-Benzyl-6-((2,6-difluoro-4-hydroxyphenyl)methyl)-8-((6-(3-((3R)-4-ethyl-3-methylpiperazin-1-yl)azetidin-1-yl)pyridin-2-yl)methyl)-4,7-dioxo-2-(prop-2-en-1-yl)-octahydro-1H-pyrazino[2,1-c][1,2,4]triazine-1-carboxamide] | 0.19 | 38 | 195 (≈ 148 µg/mL) | 4.3 | –
8 | C=CCN1CC(=O)N2[C@@H](Cc3ccc(O)cc3)C(=O)N(Cc3ccc(F)c(N4CC(N5CCN(C)[C@H](C)C5)C4)n3)C[C@@H]2N1C(=O)NCc1ccccc1 [Example 24, (6S,9aS)-N-Benzyl-8-((6-(3-((3R)-3,4-dimethylpiperazin-1-yl)azetidine-1-yl)-5-fluoropyridin-2-yl)methyl)-6-((4-hydroxyphenyl)methyl)-4,7-dioxo-2-(prop-2-en-1-yl)-octahydro-1H-pyrazino[2,1-c][1,2,4]triazine-1-carboxamide] | 0.077 | 26 | – | 19.1 | 200 (≈ 145 µg/mL)
